Experimental findings from ChEMBL document CHEMBL1147014, “Synthesis and biological evaluation of a novel structural type of serotonin 5-HT3 receptor antagonists” (Bioorg Med Chem Lett, 2006) are described below.

Each structure is given as a SMILES string.

This experiment has as its target T1, 5-hydroxytryptamine receptor 3A (Cavia porcellus, UniProt O70212).
T1 sequence (O70212 whole entry): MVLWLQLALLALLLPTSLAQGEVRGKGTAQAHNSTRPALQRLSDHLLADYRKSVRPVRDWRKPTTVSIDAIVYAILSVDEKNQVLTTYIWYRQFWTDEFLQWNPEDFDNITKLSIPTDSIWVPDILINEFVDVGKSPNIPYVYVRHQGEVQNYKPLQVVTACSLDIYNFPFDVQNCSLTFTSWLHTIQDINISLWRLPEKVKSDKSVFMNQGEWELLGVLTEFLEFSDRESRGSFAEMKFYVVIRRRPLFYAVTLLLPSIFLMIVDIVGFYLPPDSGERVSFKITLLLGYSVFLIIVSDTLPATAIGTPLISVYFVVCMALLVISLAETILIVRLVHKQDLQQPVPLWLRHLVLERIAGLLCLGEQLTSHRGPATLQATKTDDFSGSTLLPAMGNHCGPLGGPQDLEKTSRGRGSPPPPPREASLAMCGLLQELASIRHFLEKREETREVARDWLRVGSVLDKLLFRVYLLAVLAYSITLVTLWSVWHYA
Put plainly: Antagonist effect against 2-methyl-5-HT activity at 5-HT3 receptor in longitudinal muscle myenteric plexus from guinea pig ileum. It is filed as functional, tissue-based. Conditions: read-out: pA2 (converted).
As for `CCOc1nc2ccccc2nc1C(=O)Nc1ccc(O)c(CN2CCCCC2)c1`, the Kb is 794 µM. The result for `COc1nc2ccccc2nc1C(=O)Nc1cc(CN2CCCC2)c(O)c(N2CCCC2)c1` reads over 1000 µM; that for `COc1nc2ccccc2nc1C(=O)Nc1ccc(O)c(CN2CCCC2)c1`, 126 µM; that for `CCOc1nc2ccccc2nc1C(=O)Nc1cc(CN2CCCC2)c(O)c(N2CCCC2)c1`, over 1000 µM. The result for `CCOc1nc2ccccc2nc1C(=O)Nc1ccc(O)c(CN2CCN(CC)CC2)c1` reads 126 µM; that for `COc1nc2ccccc2nc1C(=O)Nc1cc(CN2CCOCC2)c(O)c(N2CCOCC2)c1`, over 1000 µM; that for `CCN1CCN(Cc2cc(NC(=O)c3nc4ccccc4nc3OC)cc(N3CCN(CC)CC3)c2O)CC1`, 79.4 µM. For `CCOc1nc2ccccc2nc1C(=O)Nc1cc(CN2CCN(CC)CC2)c(O)c(N2CCN(CC)CC2)c1`, the Kb is over 1000 µM. In the case of `COc1nc2ccccc2nc1C(=O)Nc1ccc(O)c(CN2CCCCC2)c1` it was 316 µM; in that of `CCOc1nc2ccccc2nc1C(=O)Nc1cc(CN2CCN(C)CC2)c(O)c(N2CCN(C)CC2)c1`, over 1000 µM; in that of `COc1nc2ccccc2nc1C(=O)Nc1cc(CN2CCN(C)CC2)c(O)c(N2CCN(C)CC2)c1`, 15.8 µM. As to `COc1nc2ccccc2nc1C(=O)Nc1ccc(O)c(CN2CCN(C)CC2)c1`, the Kb was 2 µM.

In the case of `COc1nc2ccccc2nc1C(=O)Nc1cc(CN2CCNCC2)c(O)c(N2CCNCC2)c1`, the Kb is 100 µM. The result for `CCOc1nc2ccccc2nc1C(=O)Nc1ccc(O)c(CN2CCNCC2)c1` reads 398 µM; that for `CCOc1nc2ccccc2nc1C(=O)Nc1ccc(O)c(CN2CCCC2)c1`, 316 µM; that for `CCOc1nc2ccccc2nc1C(=O)Nc1cc(CN2CCNCC2)c(O)c(N2CCNCC2)c1`, over 1000 µM. The result for `CCOc1nc2ccccc2nc1C(=O)Nc1ccc(O)c(CN2CCOCC2)c1` reads over 1000 µM; that for `CCOc1nc2ccccc2nc1C(=O)Nc1ccc(O)c(CN2CCN(C)CC2)c1`, 25.1 µM; that for `CCOc1nc2ccccc2nc1C(=O)Nc1cc(CN2CCOCC2)c(O)c(N2CCOCC2)c1`, over 1000 µM. In the case of `CCN1CCN(Cc2cc(NC(=O)c3nc4ccccc4nc3OC)ccc2O)CC1` it was 12.6 µM. On to `COc1nc2ccccc2nc1C(=O)Nc1ccc(O)c(CN2CCOCC2)c1`, for which the Kb was 1000 µM. The result for `COc1nc2ccccc2nc1C(=O)Nc1ccc(O)c(CN2CCNCC2)c1` reads 31.6 µM.
